The values below come from patent US5116749A, “γ-glutamylcysteine transferase” (Consortium fur Elektrochemische Industrie GmbH, priority 1988, dated 1992).

Each structure is given as a SMILES string.

By Km is commonly meant the substrate concentration at which the rate is half of its maximum.

The test system of assay [1] is γ-glutamylcysteine transferase.
The test system of assay [2] is γ-glutamylcysteine transferase. Put plainly: KM of γ-glutamylcysteine transferase for its substrates. In kind it is biochemical, Silene cucubalus. The conditions noted are these: 30° C. and pH=7.8.

For `O=C(O)CN(CCN(CC(=O)O)CC(=O)O)CC(=O)O` [ethylenediaminetetraacetic acid (EDTA), ethylenediaminetetraacetic acid], the “reversibility of the inhibition” value in assay [1] (after removal of EDTA and addition of heavy metal ions) is given as “reversible”. For the same compound, the “inhibition in the presence of EDTA” value in assay [1] (in the presence of ethylenediaminetetraacetic acid) is reported as “complete inhibition”. Consider `Cc1c(C)n2c(CSC[C@H](NC(=O)CC[C@H](N)C(=O)O)C(=O)NCC(=O)O)c(C)c(=O)n2c1=O` [glutathione S-biman], for which the Km in assay [2] was found to be 1 mM.

Turning to `N[C@@H](CCC(=O)N[C@@H](CS)C(=O)NCC(=O)O)C(=O)O` [glutathione], the Km in assay [2] was determined as 6.8 mM.
